US4493828A, “Use of thyrotropin releasing hormone and related peptides as poultry growth promotants” (Merck & Co., Inc., priority 1982, dated 1985)

Legend:
[1] = system: 4-week-old Hubbard x Hubbard cockerels; assay: Example 1: effect of TRH on growth in 4-week-old male chicks (17 days); assay type: in vivo, chicken; conditions: for body weight gain as compared with control (in words): P 0.01
Experimental: Four-week-old Hubbard x Hubbard cockerels were used in this experiment, and average initial weights were 841.75 g. Synthetic TRH (Beckman Co., Calif.) was dissolved in saline and given daily by intravenous injection via the brachial vein at 0.1 μg/bird, 1.0 μg/bird, and 10.0 μg/bird. Birds were weighed and feed consumption was measured at 2 times a week for 21/2 weeks. Data were analyzed by least squares analyses of variance, using initial weight as a covariant.

[2] = system: 4-week-old Hubbard×Hubbard cockerels; assay: Example 2: effect of TRH on growth in 4-week-old male chicks (25 days); assay type: in vivo, chicken
Experimental: Four-week-old Hubbard×Hubbard cockerels were used in this experiment, and average weight was 831.38 g. Synthetic TRH (Beckman Co., CA) was dissolved in saline and given daily by intravenous injection via the brachial vein at 0.1 μg/bird, 1.0 μg/bird, and 10 μg/ bird. Birds were weighed twice a week for 4 weeks. Data were analyzed by least squares of variance, using initial weight as a covariant.

[3] = 0.1 μg/bird daily intravenous, day 3 after start of treatment
[4] = 0.1 μg/bird daily intravenous, day 7 after start of treatment
[5] = 0.1 μg/bird daily intravenous, day 10 after start of treatment
[6] = 0.1 μg/bird daily intravenous, day 14 after start of treatment
[7] = 0.1 μg/bird daily intravenous, day 17 after start of treatment
[8] = 1.0 μg/bird daily intravenous, day 3 after start of treatment
[9] = 1.0 μg/bird daily intravenous, day 7 after start of treatment
[10] = 1.0 μg/bird daily intravenous, day 10 after start of treatment
[11] = 1.0 μg/bird daily intravenous, day 14 after start of treatment
[12] = 1.0 μg/bird daily intravenous, day 14 after start of treatment, P < 0.01
[13] = 1.0 μg/bird daily intravenous, day 17 after start of treatment, P < 0.01
[14] = 1.0 μg/bird/day, 14 and 17 days after the start of treatment
[15] = 10 μg/bird daily intravenous, day 3 after start of treatment
[16] = 10 μg/bird daily intravenous, day 7 after start of treatment
[17] = 10 μg/bird daily intravenous, day 10 after start of treatment
[18] = 10 μg/bird daily intravenous, day 14 after start of treatment
[19] = 10 μg/bird daily intravenous, day 14 after start of treatment, P < 0.01
[20] = 10 μg/bird daily intravenous, day 17 after start of treatment, P < 0.01
[21] = 10 μg/bird/day, 14 and 17 days after the start of treatment
[22] = 1.0 μg/bird/day, 22 (p 0.05) and 25 (p 0.025) days after the start of treatment
[23] = TRH (high) 10 μg/bird daily intravenous, day 4 after start of treatment
[24] = TRH (high) 10 μg/bird daily intravenous, day 8 after start of treatment

NC(=O)[C@@H]1CCCN1C(=O)[C@H](Cc1c[nH]cn1)NC(=O)[C@@H]1CCC(=O)N1 [TRH, Glp--His--Pro--NH2] was tested. Which body weight gain [1, 3] did it give?
Its body weight gain is 171.7 ± 9.8 g.

And the “body weight gain, percent increased as compared with control” value (“body weight gain, percent increased” below) [1, 3]?
Its value is “+0.6%”.

What about the “body weight, least squares mean ± SEM corrected by initial weight” value [1, 3] of the same compound?
Its value is 1009.3 ± 9.7 g.

What about the “body weight, percent increased as compared with control” value (shortened to “body weight, percent increased”) [1, 3] of the same compound?
Its value is “+0.1%”.

And the body weight gain [1, 4]?
The body weight gain was 393.1 ± 14.7 g.

What about the “body weight gain, percent increased” value [1, 4] of the same compound?
The value was “+5.0%”.

What about the “body weight, least squares mean ± SEM corrected by initial weight” value [1, 4] of the same compound?
The value was 1230.6 ± 14.7 g.

What about the “body weight, percent increased” value [1, 4] of the same compound?
The value was “+1.5%”.

What about the body weight gain [1, 5] of the same compound?
Its body weight gain is 569.4 ± 19.7 g.

And the “body weight gain, percent increased” value [1, 5]?
Its value is “+5.5%”.

What about the “body weight, least squares mean ± SEM corrected by initial weight” value [1, 5] of the same compound?
The value was 1406.9 ± 19.7 g.

And the “body weight, percent increased” value [1, 5]?
Its value is “+2.2%”.

What about the body weight gain [1, 6] of the same compound?
The body weight gain was 824.3 ± 24.9 g.

What about the “body weight gain, percent increased” value [1, 6] of the same compound?
Its value is “+8.9%”.

What about the “body weight, least squares mean ± SEM corrected by initial weight” value [1, 6] of the same compound?
Its value is 1662.1 ± 24.8 g.

What about the “body weight, percent increased” value [1, 6] of the same compound?
The value was “+4.0%”.

And the body weight gain [1, 7]?
The body weight gain was 999.5 ± 27.8 g.

What about the “body weight gain, percent increased” value [1, 7] of the same compound?
Its value is “+7.5%”.

What about the “body weight, least squares mean ± SEM corrected by initial weight” value [1, 7] of the same compound?
Its value is 1837.1 ± 27.8 g.

What about the “body weight, percent increased” value [1, 7] of the same compound?
Its value is “+3.9%”.

What about the “body weight compared with birds receiving saline injections (in words)” value ([1]; 0.1 μg/bird/day) of the same compound?
Its value is “slight increase in the body weight”.

And the body weight gain [1, 8]?
The body weight gain was 174.2 ± 9.7 g.

And the “body weight gain, percent increased” value [1, 8]?
The value was “+2.1%”.

And the “body weight, least squares mean ± SEM corrected by initial weight” value [1, 8]?
The value was 1011.8 ± 9.7 g.

What about the “body weight, percent increased” value [1, 8] of the same compound?
Its value is “+0.3%”.

And the body weight gain [1, 9]?
The body weight gain was 409.2 ± 14.6 g.

What about the “body weight gain, percent increased” value [1, 9] of the same compound?
Its value is “+9.3%”.

And the “body weight, least squares mean ± SEM corrected by initial weight” value [1, 9]?
The value was 1246.7 ± 14.6 g.

What about the “body weight, percent increased” value [1, 9] of the same compound?
Its value is “+2.9%”.

And the body weight gain [1, 10]?
Its body weight gain is 582.9 ± 19.6 g.

And the “body weight gain, percent increased” value [1, 10]?
Its value is “+8.0%”.

And the “body weight, least squares mean ± SEM corrected by initial weight” value [1, 10]?
The value was 1420.5 ± 19.6 g.

And the “body weight, percent increased” value [1, 10]?
The value was “+3.2%”.

And the “body weight gain, percent increased” value [1, 11]?
Its value is “+13.1%”.

What about the “body weight, percent increased” value [1, 11] of the same compound?
The value was “+6.0%”.

And the body weight gain [1, 12]?
Its body weight gain is 856.2 ± 24.8 g.

What about the “body weight, least squares mean ± SEM corrected by initial weight” value [1, 12] of the same compound?
The value was 1693.7 ± 24.6 g.

What about the “body weight, percent increased” value ([1]; 1.0 μg/bird daily intravenous, day 17 after start of treatment) of the same compound?
Its value is “+6.3%”.

And the “body weight gain, percent increased” value ([1]; 1.0 μg/bird daily intravenous, day 17 after start of treatment (end of experiment))?
The value was 12.0%.

What about the body weight gain [1, 13] of the same compound?
The body weight gain was 1041.2 ± 27.6 g.

What about the “body weight, least squares mean ± SEM corrected by initial weight” value [1, 13] of the same compound?
The value was 1878.8 ± 27.6 g.

What about the “body weight compared with birds receiving saline injections (in words)” value [1, 14] of the same compound?
Its value is “increased body weight significantly”.

What about the “body weight gain as compared with control (in words)” value [1, 14] of the same compound?
The value was “significant increase”.

And the body weight gain [1, 15]?
Its body weight gain is 181.6 ± 8.7 g.

What about the “body weight gain, percent increased” value [1, 15] of the same compound?
Its value is “+6.4%”.

What about the “body weight, least squares mean ± SEM corrected by initial weight” value [1, 15] of the same compound?
The value was 1019.2 ± 8.7 g.

And the “body weight, percent increased” value [1, 15]?
The value was “+1.1%”.

And the body weight gain [1, 16]?
The body weight gain was 399.3 ± 13.1 g.

What about the “body weight gain, percent increased” value [1, 16] of the same compound?
The value was “+6.7%”.

And the “body weight, least squares mean ± SEM corrected by initial weight” value [1, 16]?
The value was 1236.9 ± 13.1 g.

And the “body weight, percent increased” value [1, 16]?
Its value is “+2.1%”.

What about the body weight gain [1, 17] of the same compound?
The body weight gain was 584.0 ± 7.6 g.

And the “body weight gain, percent increased” value [1, 17]?
The value was “+8.2%”.

And the “body weight, least squares mean ± SEM corrected by initial weight” value [1, 17]?
The value was 1421.6 ± 17.6 g.

What about the “body weight, percent increased” value [1, 17] of the same compound?
The value was “+3.2%”.

What about the “body weight gain, percent increased” value [1, 18] of the same compound?
The value was “+12.7%”.

What about the “body weight, percent increased” value [1, 18] of the same compound?
The value was “+5.8%”.

What about the body weight gain [1, 19] of the same compound?
Its body weight gain is 853.3 ± 22.2 g.

What about the “body weight, least squares mean ± SEM corrected by initial weight” value [1, 19] of the same compound?
The value was 1690.8 ± 22.0 g.

What about the “body weight, percent increased” value ([1]; 10 μg/bird daily intravenous, day 17 after start of treatment) of the same compound?
The value was “+6.5%”.

And the body weight gain [1, 20]?
Its body weight gain is 1044.9 ± 24.7 g.

And the “body weight, least squares mean ± SEM corrected by initial weight” value [1, 20]?
The value was 1882.5 ± 24.7 g.

And the “body weight compared with birds receiving saline injections (in words)” value [1, 21]?
The value was “increased body weight significantly”.

What about the “body weight gain as compared with control (in words)” value [1, 21] of the same compound?
Its value is “significant increase”.

What about the “body weight compared with birds receiving saline injections (in words)” value ([2]; 0.1 μg/bird/day) of the same compound?
Its value is “slight increase in body weight”.

What about the “body weight compared with birds receiving saline injections (in words)” value [2, 22] of the same compound?
Its value is “significant increase in body weight”.

And the “body weight gain as compared with control birds (in words)” value [2, 22]?
The value was “significant increase”.

What about the “body weight compared with birds receiving saline injections (in words)” value ([2]; 10 μg/bird/day) of the same compound?
Its value is “slight increase in body weight”.

What about the “body weight gain as compared with control birds (in words)” value ([2]; 10 μg/bird/day, throughout the whole experiment) of the same compound?
The value was “slight increase in body weight gain”.

What about the body weight gain [2, 23] of the same compound?
Its body weight gain is 156.3 ± 8.4 g.

What about the “body weight gain, percent increase as compared with control” value [2, 23] of the same compound?
The value was 4.6%.

And the “body weight, least squares mean ± standard error of the mean corrected by initial weight” value [2, 23]?
The value was 997.7 ± 8.3 g.

What about the “body weight, percent increased” value [2, 23] of the same compound?
The value was 0.7%.

And the body weight gain [2, 24]?
The body weight gain was 377.9 ± 15.1 g.

And the “body weight gain, percent increase as compared with control” value [2, 24]?
The value was 0%.

And the “body weight, least squares mean ± standard error of the mean corrected by initial weight” value [2, 24]?
Its value is 1219.1 ± 15.0 g.
